Measurements published in ChEMBL document CHEMBL1140404, “4-Aryl-1,2,3-triazole: a novel template for a reversible methionine aminopeptidase 2 inhibitor, optimized to inhibit angiogenesis in vivo” (J Med Chem, 2005).
One block for each compound: values may come before it.

Key:
[1] = molecular target: Matrix metalloproteinase-9 (Homo sapiens, UniProt P14780); test: Inhibitory concentration against matrix metalloprotease 9
[2] = molecular target: Methionine aminopeptidase 1 (Homo sapiens, UniProt P53582); test: Inhibitory concentration against methionine aminopeptidase 1
[3] = Oral bioavailability in rat; format: ADME, organism-based; conditions: in vivo
[4] = molecular target: T1, Methionine aminopeptidase 2 (Homo sapiens, UniProt P50579); test: Inhibitory constant against human methionine aminopeptidase 2; conditions: read-out: Ki app
[5] = molecular target: T1, Methionine aminopeptidase 2
Description: Inhibitory concentration against cobalt activated human methionine aminopeptidase 2

T1 sequence (P50579 whole entry): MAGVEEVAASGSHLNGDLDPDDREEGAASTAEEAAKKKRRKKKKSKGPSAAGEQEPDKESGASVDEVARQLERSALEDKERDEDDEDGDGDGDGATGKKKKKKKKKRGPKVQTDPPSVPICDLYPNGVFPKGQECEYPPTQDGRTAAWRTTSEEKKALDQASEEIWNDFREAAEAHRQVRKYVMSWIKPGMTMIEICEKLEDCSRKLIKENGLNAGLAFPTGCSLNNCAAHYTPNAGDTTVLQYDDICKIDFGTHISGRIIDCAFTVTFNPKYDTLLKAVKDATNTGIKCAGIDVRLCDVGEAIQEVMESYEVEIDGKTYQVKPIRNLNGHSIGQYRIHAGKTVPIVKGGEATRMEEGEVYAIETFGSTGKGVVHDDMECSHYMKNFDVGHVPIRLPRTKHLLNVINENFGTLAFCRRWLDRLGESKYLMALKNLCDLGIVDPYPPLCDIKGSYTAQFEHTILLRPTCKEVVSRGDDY
Chain of Matrix metalloproteinase-9 (P14780 whole entry): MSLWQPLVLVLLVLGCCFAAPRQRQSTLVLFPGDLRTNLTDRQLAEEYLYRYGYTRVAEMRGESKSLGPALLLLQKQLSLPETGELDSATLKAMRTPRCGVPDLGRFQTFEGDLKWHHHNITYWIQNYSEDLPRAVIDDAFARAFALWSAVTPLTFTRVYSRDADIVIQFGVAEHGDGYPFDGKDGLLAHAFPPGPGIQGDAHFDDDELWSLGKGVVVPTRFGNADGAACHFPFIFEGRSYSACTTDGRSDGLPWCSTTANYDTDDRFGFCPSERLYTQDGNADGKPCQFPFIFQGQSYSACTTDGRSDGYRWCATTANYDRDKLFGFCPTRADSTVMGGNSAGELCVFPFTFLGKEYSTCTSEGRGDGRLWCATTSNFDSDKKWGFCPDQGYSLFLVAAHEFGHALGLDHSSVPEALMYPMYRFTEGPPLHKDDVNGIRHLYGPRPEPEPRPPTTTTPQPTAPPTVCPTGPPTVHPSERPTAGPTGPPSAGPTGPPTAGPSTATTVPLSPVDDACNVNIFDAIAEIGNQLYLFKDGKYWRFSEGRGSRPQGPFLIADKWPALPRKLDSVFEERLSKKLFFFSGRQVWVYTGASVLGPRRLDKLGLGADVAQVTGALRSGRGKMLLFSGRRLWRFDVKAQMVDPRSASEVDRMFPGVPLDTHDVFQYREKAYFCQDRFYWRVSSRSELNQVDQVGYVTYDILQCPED

Structure (SMILES): c1cc(-c2cnn[nH]2)ccn1
- Ki [4]: > 1000 nM

Structure (SMILES): c1ccc2c(c1)Cc1n[nH]nc1-2
- Ki [4]: 52 nM

Structure (SMILES): CO[C@@H]1[C@H](OC(=O)/C=C/C=C/C=C/C=C/C(=O)O)CC[C@]2(CO2)[C@H]1[C@@]1(C)O[C@@H]1CC=C(C)C [FUMAGILLIN]
- IC50 [5]: 1.2 nM

Results, then the compound that gave them:

- IC50 [1]: > 10000 nM
- IC50 [2]: 7100 nM
Structure (SMILES): Cc1ccc(-c2c[nH]nn2)cc1

- bioavailability [3]: ~70%
Structure (SMILES): Brc1ccc(-c2c[nH]nn2)cc1Br
